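Interpolation was linear, between the two tested concentrations surrounding the appropriate level; five concentrations were tested over 48 hours in 96-well plates. The concentration for full growth arrest is given as TGI.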
How the values were obtained:
Assay in all cases: NCI anticancer screen, dose series, 48 h
[1] = system: 786-0 renal
[2] = system: A549 NSCLC
[3] = system: ACHN renal
[4] = system: BT-549 breast
[5] = system: CAKI-1 renal
[6] = system: EKVX NSCLC
[7] = system: HCC-2998 colon
[8] = system: HCT-116 colon
[9] = system: HCT-15 colon
[10] = system: HOP-62 NSCLC
[11] = system: HS 578T breast
[12] = system: HT29 colon
[13] = system: IGROV1 ovarian
[14] = system: K-562 leukemia
[15] = system: KM12 colon
[16] = system: LOX IMVI melanoma
[17] = system: M14 melanoma
[18] = system: MALME-3M melanoma
[19] = system: MCF7 breast
[20] = system: MDA-MB-231 breast
[21] = system: MDA-MB-435
[22] = system: MDA-N
[23] = system: MOLT-4 leukemia
[24] = system: NCI-H226 lung
[25] = system: NCI-H23 lung
[26] = system: NCI-H460 lung
[27] = system: NCI-H522 lung
[28] = system: NCI/ADR-RES ovarian
[29] = system: OVCAR-3 ovarian
[30] = system: OVCAR-4 ovarian
[31] = system: OVCAR-5 ovarian
[32] = system: OVCAR-8 ovarian
[33] = system: PC-3 prostate
[34] = system: RPMI-8226 leukemia
[35] = system: RXF 393 renal
[36] = system: SF-268 CNS
[37] = system: SF-295 CNS
[38] = system: SF-539 CNS
[39] = system: SK-MEL-2 melanoma
[40] = system: SK-MEL-28 melanoma
[41] = system: SK-MEL-5 melanoma
[42] = system: SK-OV-3 ovarian
[43] = system: SN12C renal
[44] = system: SNB-19 CNS
[45] = system: SNB-75 CNS
[46] = system: SW-620 colon
[47] = system: T-47D breast
[48] = system: TK-10 renal
[49] = system: U251 CNS
[50] = system: UACC-257 melanoma
[51] = system: UACC-62 melanoma
[52] = system: UO-31 renal
[53] = system: A498 renal
[54] = system: CCRF-CEM leukemia
[55] = system: COLO 205 colon
[56] = system: DU-145 prostate
[57] = system: HL-60(TB) leukemia
[58] = system: HOP-92 NSCLC
[59] = system: SR leukemia

Q: `Cc1cc(S(=O)(=O)O)c(NC(=O)c2oc3cc(O)ccc3c(=O)c2C)cc1Cl` was tested. Which TGI [1] did it give?
A: Its TGI is over 100 µM.

Q: And the TGI [2]?
A: Its TGI is over 100 µM.

Q: And the TGI [3]?
A: The TGI was over 100 µM.

Q: And the TGI [4]?
A: Its TGI is over 100 µM.

Q: What about the TGI [5] of the same compound?
A: The TGI was over 100 µM.

Q: And the TGI [6]?
A: The TGI was over 100 µM.

Q: And the TGI [7]?
A: Its TGI is over 100 µM.

Q: And the TGI [8]?
A: Its TGI is over 100 µM.

Q: And the TGI [9]?
A: The TGI was over 100 µM.

Q: What about the TGI [10] of the same compound?
A: Its TGI is over 100 µM.

Q: What about the TGI [11] of the same compound?
A: Its TGI is over 100 µM.

Q: What about the TGI [12] of the same compound?
A: Its TGI is over 100 µM.

Q: And the TGI [13]?
A: Its TGI is over 100 µM.

Q: And the TGI [14]?
A: The TGI was over 100 µM.

Q: What about the TGI [15] of the same compound?
A: Its TGI is over 100 µM.

Q: And the TGI [16]?
A: Its TGI is over 100 µM.

Q: What about the TGI [17] of the same compound?
A: Its TGI is over 100 µM.

Q: And the TGI [18]?
A: The TGI was over 100 µM.

Q: And the TGI [19]?
A: Its TGI is over 100 µM.

Q: What about the TGI [20] of the same compound?
A: The TGI was over 100 µM.

Q: And the TGI [21]?
A: The TGI was over 100 µM.

Q: What about the TGI [22] of the same compound?
A: Its TGI is over 100 µM.

Q: What about the TGI [23] of the same compound?
A: The TGI was over 100 µM.

Q: What about the TGI [24] of the same compound?
A: The TGI was over 100 µM.

Q: What about the TGI [25] of the same compound?
A: The TGI was over 100 µM.

Q: And the TGI [26]?
A: Its TGI is over 100 µM.

Q: And the TGI [27]?
A: The TGI was over 100 µM.

Q: What about the TGI [28] of the same compound?
A: Its TGI is over 100 µM.

Q: What about the TGI [29] of the same compound?
A: The TGI was over 100 µM.

Q: What about the TGI [30] of the same compound?
A: The TGI was over 100 µM.

Q: What about the TGI [31] of the same compound?
A: Its TGI is over 100 µM.

Q: What about the TGI [32] of the same compound?
A: The TGI was over 100 µM.

Q: And the TGI [33]?
A: The TGI was over 100 µM.

Q: And the TGI [34]?
A: The TGI was over 100 µM.

Q: And the TGI [35]?
A: Its TGI is over 100 µM.

Q: And the TGI [36]?
A: The TGI was over 100 µM.

Q: What about the TGI [37] of the same compound?
A: The TGI was over 100 µM.

Q: And the TGI [38]?
A: Its TGI is over 100 µM.

Q: What about the TGI [39] of the same compound?
A: The TGI was over 100 µM.

Q: What about the TGI [40] of the same compound?
A: The TGI was over 100 µM.

Q: And the TGI [41]?
A: Its TGI is over 100 µM.

Q: And the TGI [42]?
A: The TGI was over 100 µM.

Q: And the TGI [43]?
A: The TGI was over 100 µM.

Q: What about the TGI [44] of the same compound?
A: The TGI was over 100 µM.

Q: What about the TGI [45] of the same compound?
A: The TGI was over 100 µM.

Q: And the TGI [46]?
A: The TGI was over 100 µM.

Q: And the TGI [47]?
A: Its TGI is over 100 µM.

Q: What about the TGI [48] of the same compound?
A: Its TGI is over 100 µM.

Q: And the TGI [49]?
A: Its TGI is over 100 µM.

Q: And the TGI [50]?
A: The TGI was over 100 µM.

Q: What about the TGI [51] of the same compound?
A: Its TGI is over 100 µM.

Q: And the TGI [52]?
A: Its TGI is over 100 µM.

Q: `CC(C)CCCC(C)[C@H]1CC[C@H]2N=C(Nc3ccccc3)CCC[C@]12C` (some centres undefined) was tested. Which TGI [1] did it give?
A: The TGI was 3.45 µM.

Q: What about the TGI [53] of the same compound?
A: Its TGI is 10.8 µM.

Q: What about the TGI [2] of the same compound?
A: The TGI was 14.5 µM.

Q: What about the TGI [4] of the same compound?
A: Its TGI is 7.66 µM.

Q: What about the TGI [5] of the same compound?
A: The TGI was 7.07 µM.

Q: And the TGI [54]?
A: Its TGI is 25.3 µM.

Q: And the TGI [55]?
A: The TGI was 2.67 µM.

Q: What about the TGI [56] of the same compound?
A: Its TGI is over 100 µM.

Q: And the TGI [9]?
A: The TGI was 4.68 µM.

Q: And the TGI [57]?
A: The TGI was 4.7 µM.

Q: What about the TGI [10] of the same compound?
A: The TGI was 6.12 µM.

Q: And the TGI [58]?
A: The TGI was 9.42 µM.

Q: And the TGI [11]?
A: Its TGI is 5.81 µM.

Q: And the TGI [12]?
A: The TGI was 4.09 µM.

Q: What about the TGI [13] of the same compound?
A: The TGI was 3.34 µM.

Q: What about the TGI [14] of the same compound?
A: The TGI was 3.55 µM.

Q: And the TGI [15]?
A: The TGI was over 100 µM.

Q: What about the TGI [16] of the same compound?
A: The TGI was 4.07 µM.

Q: And the TGI [18]?
A: Its TGI is 6.39 µM.

Q: And the TGI [19]?
A: Its TGI is 3.57 µM.

Q: What about the TGI [20] of the same compound?
A: The TGI was 3.04 µM.

Q: And the TGI [21]?
A: The TGI was 3.75 µM.

Q: And the TGI [22]?
A: The TGI was 10.9 µM.

Q: What about the TGI [23] of the same compound?
A: The TGI was 3.97 µM.

Q: What about the TGI [24] of the same compound?
A: Its TGI is 3.72 µM.

Q: What about the TGI [25] of the same compound?
A: Its TGI is 4.25 µM.

Q: What about the TGI [26] of the same compound?
A: The TGI was 3.92 µM.

Q: And the TGI [28]?
A: Its TGI is 3.32 µM.

Q: And the TGI [29]?
A: The TGI was 6.8 µM.

Q: And the TGI [30]?
A: Its TGI is 14.4 µM.

Q: What about the TGI [32] of the same compound?
A: Its TGI is 3.66 µM.

Q: What about the TGI [33] of the same compound?
A: Its TGI is over 100 µM.

Q: And the TGI [34]?
A: Its TGI is 4.8 µM.

Q: And the TGI [35]?
A: Its TGI is 2.98 µM.

Q: And the TGI [36]?
A: The TGI was 7.17 µM.

Q: What about the TGI [37] of the same compound?
A: Its TGI is 3.1 µM.

Q: And the TGI [38]?
A: The TGI was 3.28 µM.

Q: And the TGI [39]?
A: Its TGI is 3.2 µM.

Q: What about the TGI [40] of the same compound?
A: The TGI was 3.89 µM.

Q: What about the TGI [41] of the same compound?
A: Its TGI is 3 µM.

Q: What about the TGI [42] of the same compound?
A: Its TGI is 4.11 µM.

Q: And the TGI [43]?
A: The TGI was 3.48 µM.

Q: What about the TGI [44] of the same compound?
A: Its TGI is 17.1 µM.

Q: What about the TGI [45] of the same compound?
A: Its TGI is 3.99 µM.

Q: What about the TGI [59] of the same compound?
A: The TGI was 4.33 µM.

Q: And the TGI [46]?
A: Its TGI is over 100 µM.

Q: And the TGI [47]?
A: Its TGI is 14.2 µM.

Q: And the TGI [48]?
A: Its TGI is 9.33 µM.

Q: And the TGI [49]?
A: Its TGI is 4.33 µM.

Q: What about the TGI [50] of the same compound?
A: Its TGI is 4.85 µM.

Q: And the TGI [51]?
A: Its TGI is 3.46 µM.

Q: What about the TGI [52] of the same compound?
A: Its TGI is 3.12 µM.
